# Assay results as given in US20070087326A1, “Method of measuring the biological activity of an urotensin II receptor” (priority 2005, published 2007).
# Bridge positions count the residues as written; N and C are the ends. Square brackets hold non-standard residues; d marks the D form. Peptide text beside a SMILES is read from it. Pen = CC(C)(S)[C@H](N)C(=O)O; Orn = NCCC[C@H](N)C(=O)O
# Assays:
# [1] = target: T1, recombinant rat U-II receptors (CHOrUII cells) (Rattus norvegicus, UniProt P49684); assay: CDS (CellKey) electrical impedance assay in CHOrUII cells; format: cell-based; settings: FIG. 3C
# T1 construct: expressed in transfected cells; host or cells: CHO-K1 (ATCC CRL-9618), G418 selection
# T1 sequence (P49684 1-386): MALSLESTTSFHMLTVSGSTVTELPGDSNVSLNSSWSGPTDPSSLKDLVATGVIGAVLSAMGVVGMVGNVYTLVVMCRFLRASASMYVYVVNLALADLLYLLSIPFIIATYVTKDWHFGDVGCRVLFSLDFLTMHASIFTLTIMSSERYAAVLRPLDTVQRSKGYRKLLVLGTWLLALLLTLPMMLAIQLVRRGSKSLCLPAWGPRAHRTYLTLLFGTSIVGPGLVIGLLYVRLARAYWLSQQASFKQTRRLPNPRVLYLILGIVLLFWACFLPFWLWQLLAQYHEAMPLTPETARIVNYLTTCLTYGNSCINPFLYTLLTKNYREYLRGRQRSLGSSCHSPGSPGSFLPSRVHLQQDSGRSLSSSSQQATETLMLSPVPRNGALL
# Method: The CHOrUII cells were under G418 selection. […] Urantide (PUT-3639-P1) was purchased from Peptide International (Louisville, Ky.). Cells of RMS13 and 6D9 were cultured in RPMI medium (ATCC 30-2001) containing 10% FBS (Cat. No. SH30070.03, Hyclone, Logan, Utah). CHOrUII cells were grown in DMEMF12 (Gibco #11330-032) medium containing G418 at 1 mg/ml concentration. Cells were plated at 60 or 70K/well in a medium indicated above overnight. The medium was removed and replaced with Hanks balanced salt solution (HBSS, Gibco) containing 20 mM Hepes and 0.1% BSA. Electrical impedance was measured 2-5 minutes prior to compound addition. Compounds were added and measurements continued. […] In particular, 100 mV voltage was applied to the cells with a sweeping frequency range of 1 kHz to […]. Cell density-dependence responses to Urotensin II (500 nM) were analyzed to determine the optimum cell density for the CDS assay at 28° C.
# [2] = target: T2, endogeneous human U-II receptors (6D9 cells, sub-clone of RMS13) (Homo sapiens, UniProt Q9UKP6); assay: CDS (CellKey) electrical impedance assay in 6D9 cells; format: cell-based; settings: FIG. 3B
# T2 construct: Cells of RMS13 and 6D9 have endogeneous human U-II receptors; host or cells: RMS13 (human) and 6D9, a sub-clone of RMS13
# T2 sequence (Q9UKP6 1-389): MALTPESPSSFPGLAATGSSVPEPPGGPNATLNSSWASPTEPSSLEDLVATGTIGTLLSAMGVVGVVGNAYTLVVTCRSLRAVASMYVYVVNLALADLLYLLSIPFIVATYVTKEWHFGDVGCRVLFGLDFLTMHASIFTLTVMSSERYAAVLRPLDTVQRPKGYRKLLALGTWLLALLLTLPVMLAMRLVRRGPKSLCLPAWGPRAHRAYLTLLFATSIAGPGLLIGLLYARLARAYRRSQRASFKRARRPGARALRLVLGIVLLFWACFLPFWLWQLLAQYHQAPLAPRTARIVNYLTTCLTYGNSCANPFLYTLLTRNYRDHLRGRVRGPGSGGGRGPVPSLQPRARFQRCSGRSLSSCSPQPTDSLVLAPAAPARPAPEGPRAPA
# Method: (§1) RMS13 was obtained from ATCC (ATCC NO: CRL-2061™, Manassas, Va.). […] The parent of the CHOrUII cells, CHO-K1 was obtained from ATCC (CAT# CRL-9618_CHOK1). The rat UT receptor was recombinantly cloned into CHO-K1 following standard molecular biology cloning techniques. The CHOrUII cells were under G418 selection. […] Angiotensin was purchased from Sigma. Urantide (PUT-3639-P1) was purchased from Peptide International (Louisville, Ky.).
# (§2) Cells of RMS13 and 6D9 were cultured in RPMI medium (ATCC 30-2001) containing 10% FBS (Cat. No. SH30070.03, Hyclone, Logan, Utah). CHOrUII cells were grown in DMEMF12 (Gibco #11330-032) medium containing G418 at 1 mg/ml concentration. Cells were plated at 60 or 70K/well in a medium indicated above overnight. The medium was removed and replaced with Hanks balanced salt solution (HBSS, Gibco) containing 20 mM Hepes and 0.1% BSA. Electrical impedance was measured 2-5 minutes prior to compound addition. Compounds were added and measurements continued. The electrical impedance of the cells was measured using CellKey™ (MDS Sciex, Concord, Ontario) according to the protocol of the manufacturer, see for example Ciambrone et al. (2004, J Biomol Screen. 9(6): 467-80). […]
# (§3) Cell density-dependence responses to Urotensin II (500 nM) were analyzed to determine the optimum cell density for the CDS assay at 28° C.
# [3] = target: T3, endogeneous human U-II receptors (RMS13 cells) (Homo sapiens, UniProt Q9UKP6); assay: CDS (CellKey) electrical impedance assay in RMS13 cells; format: cell-based; settings: FIG. 3A
# T3 construct: Cells of RMS13 and 6D9 have endogeneous human U-II receptors; host or cells: RMS13 (human) and 6D9, a sub-clone of RMS13
# T3 sequence (Q9UKP6 1-389): T2 sequence (Q9UKP6 1-389)
# Method: as §1, §2, §3
# [4] = target: human U-II receptor (endogeneous, on RMS13 and 6D9 cells) (human) (UniProt Q9UKP6); assay: cell-based or functional assay
# UT receptor = target: T4, UT receptor (Rattus norvegicus, UniProt P49684); settings: competitive UT receptor antagonist, rat aorta (Patacchini, 2003); cited from earlier work
# T4 construct: pure UT receptor antagonist in rat aorta vasoconstriction assays; host or cells: rat aorta tissue
# T4 sequence (P49684 1-386): T1 sequence (P49684 1-386)
# [5] = tested on: panel of receptor/ion channels; assay: binding to a panel of receptor/ion channels; settings: data not shown
# human UT receptor = target: T5, human UT receptor (Homo sapiens, UniProt Q9UKP6); settings: CHO cells over-expressing the human UT receptor (Camarda, 2004); cited from earlier work
# T5 construct: host or cells: CHO cells over-expressing the human UT receptor
# T5 sequence (Q9UKP6 1-389): T2 sequence (Q9UKP6 1-389)
Compound,effect on U-II stimulated increase in electrical impedance [1],effect on U-II stimulated increase in electrical impedance [2],effect on U-II stimulated increase in electrical impedance [3],"EC50 of the dose dependent increase in electrical impedance of 6D9 cells (CDS, CellKey) [4]","EC50 of the dose dependent increase in electrical impedance of RMS13 cells (CDS, CellKey) [4]",pA2 (UT receptor),binding activity to proteins within a panel of receptor/ion channels [5],agonist activity (human UT receptor)
angiotensin,did not,did not,did not,–,–,–,–,–
Urotensin-II (peptide),–,–,–,0.42 nM,0.27 nM,–,–,–
CC(C)[C@H](NC(=O)[C@@H]1CSSC(C)(C)[C@H](NC(=O)[C@@H](N)CC(=O)O)C(=O)N[C@@H](Cc2ccccc2)C(=O)N[C@H](Cc2c[nH]c3ccccc23)C(=O)N[C@@H](CCCN)C(=O)N[C@@H](Cc2ccc(O)cc2)C(=O)N1)C(=O)O [Urantide] (H-D[Pen]F[dW][Orn]YCV-OH; disulfide 2-7),blocked the U-II stimulated increase,blocked the U-II stimulated increase,blocked the U-II stimulated increase,–,–,8.3,minimal binding activity,potent U-II agonist
